Results as given in article PMC4992173, “Divergent synthesis and identification of the cellular targets of deoxyelephantopins” (Nature Communications, 2016).

Target: T1, PPARγ (Homo sapiens, UniProt P37231)
T1 sequence (P37231 1-505): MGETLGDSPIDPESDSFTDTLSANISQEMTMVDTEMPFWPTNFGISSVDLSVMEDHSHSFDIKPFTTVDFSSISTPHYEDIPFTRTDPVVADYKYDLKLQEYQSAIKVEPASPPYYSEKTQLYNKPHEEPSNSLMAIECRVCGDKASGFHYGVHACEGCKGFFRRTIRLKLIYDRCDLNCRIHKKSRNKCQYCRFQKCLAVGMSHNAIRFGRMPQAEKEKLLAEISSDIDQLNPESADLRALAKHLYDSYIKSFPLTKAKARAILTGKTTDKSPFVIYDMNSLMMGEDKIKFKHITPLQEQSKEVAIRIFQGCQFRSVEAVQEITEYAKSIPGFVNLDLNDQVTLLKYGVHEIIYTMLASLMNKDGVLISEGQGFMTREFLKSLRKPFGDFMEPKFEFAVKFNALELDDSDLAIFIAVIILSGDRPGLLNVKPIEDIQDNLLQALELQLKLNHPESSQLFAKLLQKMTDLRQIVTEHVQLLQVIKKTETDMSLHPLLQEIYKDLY
Assay: PPARγ enrichment from MCF7 lysates spiked with recombinant PPARγ (LC-MS/MS LFQ)
Assay type: binding
Details: for LFQ intensity (PPARG enriched by probe): MCF7 lysates spiked with recombinant PPARγ (30 nM), n=3
Experimental: On the basis of the reported interaction between deoxyelephantopin and PPARγ and because MCF7 cells are known to express very low levels of this protein, we investigated in a separate experiment whether deoxyelephantopin indeed covalently binds PPARγ. The recombinant transcription factor was spiked into MCF7 lysates to 30 nM final concentration and successfully enriched by the methacrylate ester probe 24c, as evidenced from LC–MS/MS-based label-free quantification (LFQ)[48]. […] To investigate whether DEP is also capable of binding to endogenous PPARγ directly in living cells, we performed a targeted competitive proteomics experiment in Caco-2, a colon cancer cell line known to express larger amounts of PPARγ[49]. The cells were treated in situ with dimethyl sulfoxide (DMSO) or 20 μM deoxyelephantopin, lysed and treated with 24c. Gratifyingly, endogenous PPARγ was successfully enriched and quantified from the DMSO-treated Caco-2 cells, whereas DEP pretreatment efficiently competed PPARγ enrichment (>95%; Fig. 7a). In yet another control experiment, we expressed hPPARγ in HeLa cells and successfully conducted a gel-based competition experiment once again using DEP as an in situ competitor and 24c-Cy3 as reporter probe (Supplementary Fig. 14).
Supplementary figure 13: LFQ quantification of PPARγ enrichment from supplemented MCF7 lysates using 10 µM of 23c or 24c as enrichment probes (n = 3). […]
was processed with MaxQuant (see below).
In situ global proteomics profiling using LC-MS/MS. Caco- ’ cells/mL) in a 6-well plate, allowed to grow to confluence and to differentiate for 28 days. The wells were washed one time with PBS and treated with either DMSO, 10 µM rosiglitazone, 50 µM T0070907 or 20 µM DEP for 24 hours. Cells were washed two times with PBS and lysates were prepared. Samples (30 µg) were denatured with 6 M urea in 50 mM NH4HCO3, reduced […]
dark. Samples were diluted to 2 M urea with 50 mM NH4HCO3, and digested with trypsin ([…] for 12 hours at 37 °C. Samples were acidified to a final concentration of 5% acetic acid, desalted over a self-packed C18 spin column and dried. Samples were analyzed by LC-MS/MS (see below) and the MS data was processed with […]
ARγ nrichment for mass spectrometry. MCF7 lysate (2 mg/ml, 0.5 mL) supplemented µ γ was treated with either 23c or 24c (10 µM, 50x stock in DMSO) for one hour at r.t., followed by click chemistry (see above). […] Samples were analyzed by LC-MS/MS (see below) and the MS data was processed with MaxQuant (see below).
LC-MS/MS analysis. Peptides were resuspended in water with 0.1% formic acid (FA) and analyzed using Proxeon EASY-nLC 1000 nano-UHPLC coupled to QExactive Plus Quadrupole-Orbitrap mass spectrometer (Thermo Scientific). […]

| Compound | PPARγ enrichment compared with probe 24c (MCF7 lysates spiked with PPARγ, 10 µM probe) | LFQ intensity (PPARG enriched by probe) (10 µM probe) | Ratio 24c/23c (LFQ intensity of PPARG) (MCF7 lysates spiked with PPARγ, 10 µM probes) |
| --- | --- | --- | --- |
| C#CCC[C@H](O)[C@H]1C(=C)C(=O)O[C@@H]1c1ccccc1 [23c] | comparable LFQ value | 5.49E+09 |  |
| C#CCC[C@H](OC(=O)C(=C)C)[C@H]1C(=C)C(=O)O[C@@H]1c1ccccc1 [24c] |  | 5.15E+09 | 0.94 |
